Laboratory results taken from US20230250054A1, “SELECTIVE HISTONE DEACETYLASE 6 INHIBITORS” (The Board of Trustees of the University of Illinois, priority 2020, published 2023).
Entries after “also recorded” stand apart in the source; their conditions may differ.

Columns and labels:
[1] = system: Ac-α-tubulin; experiment: Immunoblot of Ac-α-tubulin in WM164 melanoma cells; type: cell-based, human; conditions: 0.1 to 10 μM, overnight
Experimental: (§1) The SM1 murine melanoma cells were obtained from Dr. A. Ribas at the University of California, Los Angeles. WM164 human melanoma cells were obtained from ATCC. The cells were cultured in an incubator in RPMI 1640, 1% penicillin-streptomycin, and 10% fetal bovine serum at 37° C. with 5% CO2. […] For STAT3 phosphorylation assays, cells were pre-treated with or without HDAC6i (5 μM) for overnight followed by treatment with recombinant human IL-6 (Biolegend) for 20 min. PBS was added as a control. RAW 264.7 macrophages were purchased from ATCC and cultured in DMEM medium supplemented with 10% FBS, 1% non-essential amino acids, and 2-mercaptoethanol (50 μM). […] Cytotoxicity assay was performed using CellTox Green (Promega, Cat #G8731) following the manufacturer's instructions, and fluorescence readings were obtained on Spectramax i3 (Molecular Devices) multimode plate reader at wavelengths EX 485 nm and EM 520 nm. […]
(§2) The cells were harvested and lysed with RIPA buffer (ThermoScientific, 89900) containing protease and phosphatase inhibitors (ThermoScientific, 78440) by sonication in Bioruptor (Diagenode) for 8 cycles of 30 seconds ON and 30 seconds OFF on high setting. To assess the expression of proteins, total protein samples were heat-denatured in SDS sample loading buffer, and 15-20 μg of protein was analysed on 4-20% SDS-PAGE gels (Bio-Rad, 456-1093). […]

[2] = system: Ac—H3; experiment: Immunoblot of Ac-H3 in WM164 melanoma cells; type: cell-based, human; conditions: 0.1 to 10 μM, overnight
Experimental: as §1, §2

[3] = system: IL10 gene; experiment: IL10 gene expression by quantitative PCR in bone marrow-derived macrophages; type: cell-based; conditions: mouse bone marrow-derived macrophages, 5 μM, vs vehicle, mRNA quantification
Experimental: Total RNA was isolated from cells following the manufacturer's instructions of QIAzol (Qiagen, 79306). RNA quantification was done using NanoDrop One spectrophotometer (NanoDrop Technologies). Samples with absorbance at 260/280 ratios over 1.9 were used for cDNA synthesis with iScript cDNA synthesis kit (Bio-Rad, 1708891). Synthesized cDNA from 1 μg of total RNA was diluted 1:10 with nuclease-free water. The quantitative PCR analysis was performed using iQ SYBR Green Supermix (Bio-Rad, 1708882) on CFX96 real-time system (Bio-Rad). Gene expression analysis was performed using 2^−ΔΔCt method, and target mRNA levels were normalized to GAPDH expression. Cycling conditions were used as per manufacturer's instructions. Single PCR product amplification was confirmed by melting curve analysis in all the experiments performed. The sequence of primers used in the analysis are as follows: […]
Immune cells, such as macrophages, are a major cellular component of the tumor microenvironment. Tumor-associated macrophages are often tumor promoting by secreting anti-inflammatory cytokines such as TGFβ and IL-10. It was previously established that HDAC6 forms a complex with STAT3, and either pharmacological inhibition or shRNA mediated knockdown of HDAC6 decreased STAT3 recruitment at the IL10 promoter region in antigen-presenting cells (see, e.g., Cheng et al., J. Immunol. 193: 2850-2862 (2014)). […]

[4] = system: Ac-α-tubulin; experiment: Immunoblot of Ac-α-tubulin in RAW 264.7 macrophages; type: cell-based; conditions: 1, 5, and 10 μM, overnight, listed as Suprastat
Experimental: as §1, §2

[5] = system: STAT3; experiment: IL-6 induced STAT3 phosphorylation in WM164 melanoma cells; type: cell-based, human; conditions: WM164 cells pre-treated with 5 μM, then IL-6 (30 ng/mL) for 20 min, vs IL-6 alone
Experimental: as §1, §2

[6] = system: SM1 melanoma tumors; experiment: Syngeneic SM1 murine melanoma model, tumor growth; type: in vivo; conditions: C57BL/6 mice with SM1 tumors; Suprastat 25 mg/kg IP, anti-PD1 15 mg/kg IP; vs control (PBS)
[7] = system: immune cells; experiment: Immune cell phenotyping by flow cytometry in the SM1 melanoma model; type: in vivo, C57BL/6 mice
Experimental: To understand the immunomodulatory properties of Suprastat, a comprehensive immune cell phenotyping by flow cytometry was performed. […] (see, e.g., Knox et al., Sci. Rep. 9: 6136 (2019)). […] A significant change in immunosuppressive T-regs (FIG. 6F) was not observed. […] (see, e.g., Knox et al., Sci. Rep. 9: 6136 (2019)).

[8] = physchem; conditions: PBS
[9] = in vitro; conditions: rat, liver microsomes
[10] = system: SM1 murine melanoma cells; experiment: CellTox Green cytotoxicity assay in SM1 cells; type: cell-based; conditions: 24 h
Experimental: The SM1 murine melanoma cells were obtained from Dr. A. Ribas at the University of California, Los Angeles. WM164 human melanoma cells were obtained from ATCC. The cells were cultured in an incubator in RPMI 1640, 1% penicillin-streptomycin, and 10% fetal bovine serum at 37° C. with 5% CO2. […] For STAT3 phosphorylation assays, cells were pre-treated with or without HDAC6i (5 μM) for overnight followed by treatment with recombinant human IL-6 (Biolegend) for 20 min. PBS was added as a control. RAW 264.7 macrophages were purchased from ATCC and cultured in DMEM medium supplemented with 10% FBS, 1% non-essential amino acids, and 2-mercaptoethanol (50 μM). RAW macrophages were treated with 1 μM, 5 μM, and 10 μM of Suprastat overnight before collecting the lysates for immunoblot assay. Cytotoxicity assay was performed using CellTox Green (Promega, Cat #G8731) following the manufacturer's instructions, and fluorescence readings were obtained on Spectramax i3 (Molecular Devices) multimode plate reader at wavelengths EX 485 nm and EM 520 nm. SM1 cells were treated with compounds at various concentrations for 24 h to determine cytotoxicity.

SMILES | levels of acetylated α-tubulin (Ac-α-tubulin) [1] | levels of acetylated histone H3 (Ac—H3) [2] | expression of IL10 gene [3] | levels of Ac-α-tubulin in RAW 264.7 macrophages [4] | Y705 phosphorylation of STAT3 [5] | tumor burden (tumor volume) [6] | F4/80+CD206+ pro-tumor M2 macrophages ([7]; flow cytometry) | natural killer (NK) cells ([7]; flow cytometry) | percentage of CD8+ central memory (CM) cells ([7]; flow cytometry) | M1/M2 ratio ([7]; relative to control and anti-PD1 groups) | half-life [8] | half-life [9] | concentration at which cytotoxicity starts [10]
NCc1ccc(NC(=O)N(CCCCO)Cc2ccc(C(=O)NO)cc2)cc1 [Compound 6a, 4-((3-(4-(Aminomethyl)phenyl)-1-(4-hydroxybutyl)ureido)methyl)-N-hydroxybenz-amide] | highest Ac-α-tubulin level | slight increase in the levels of Ac—H3 | decreased expression of IL10 gene | dose-dependent effect; also recorded: dose-dependent increase in the levels of Ac-α-tubulin | decreased Y705 phosphorylation of STAT3 | reduced the tumor burden | significantly decreased | positive trend | increase in the percentage of CD8+ central memory (CM) cells | significantly higher M1/M2 ratio | > 24 h | 2.88 h | 
CCCCN(Cc1ccc(C(=O)NO)cc1)C(=O)Nc1ccc(CN)cc1 [Compound 6b, 4-((3-(4-(Aminomethyl)phenyl)-1-butylureido)methyl)-N-hydroxybenzamide] |  |  |  |  |  |  |  |  |  |  |  |  | 10 µM
